Where two headings read alike, the source gives them in different places.
Experiments:
α4β1 integrin = α4β1 integrin (Homo sapiens (Human), UniProt P05556+P13612); experiment: Integrin Adhesion Assay: Protocol 5 (VCAM-coated plate, RPMI-8866 cells with stable LOF mutation of the ITGB7 gene); format: cell-based
In short: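 RPMI-8866 B cells with CRISPR/Cas9 ITGB7 knockout (clonal, verified by flow cytometry) adhered to VCAM-coated wells for 1 h at 37° C in HEPES/NaCl buffer with 1 mM MnCl2, 0.1 mM CaCl2, 1% BSA, 1% DMSO. Bound cells quantified by CellTiter-Glo luminescence after washing; % inhibition versus DMSO and control, 4-parameter fit.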

α4β7 integrin = α4β7 integrin (Homo sapiens (Human), UniProt P13612+P26010); experiment: Integrin Adhesion Assay: Protocol 4 (MAdCAM-coated plate, RPMI-8866 cells with stable LOF mutation of the ITGB1 gene); format: cell-based
α4β7 integrin, sequence (P13612 34-1032): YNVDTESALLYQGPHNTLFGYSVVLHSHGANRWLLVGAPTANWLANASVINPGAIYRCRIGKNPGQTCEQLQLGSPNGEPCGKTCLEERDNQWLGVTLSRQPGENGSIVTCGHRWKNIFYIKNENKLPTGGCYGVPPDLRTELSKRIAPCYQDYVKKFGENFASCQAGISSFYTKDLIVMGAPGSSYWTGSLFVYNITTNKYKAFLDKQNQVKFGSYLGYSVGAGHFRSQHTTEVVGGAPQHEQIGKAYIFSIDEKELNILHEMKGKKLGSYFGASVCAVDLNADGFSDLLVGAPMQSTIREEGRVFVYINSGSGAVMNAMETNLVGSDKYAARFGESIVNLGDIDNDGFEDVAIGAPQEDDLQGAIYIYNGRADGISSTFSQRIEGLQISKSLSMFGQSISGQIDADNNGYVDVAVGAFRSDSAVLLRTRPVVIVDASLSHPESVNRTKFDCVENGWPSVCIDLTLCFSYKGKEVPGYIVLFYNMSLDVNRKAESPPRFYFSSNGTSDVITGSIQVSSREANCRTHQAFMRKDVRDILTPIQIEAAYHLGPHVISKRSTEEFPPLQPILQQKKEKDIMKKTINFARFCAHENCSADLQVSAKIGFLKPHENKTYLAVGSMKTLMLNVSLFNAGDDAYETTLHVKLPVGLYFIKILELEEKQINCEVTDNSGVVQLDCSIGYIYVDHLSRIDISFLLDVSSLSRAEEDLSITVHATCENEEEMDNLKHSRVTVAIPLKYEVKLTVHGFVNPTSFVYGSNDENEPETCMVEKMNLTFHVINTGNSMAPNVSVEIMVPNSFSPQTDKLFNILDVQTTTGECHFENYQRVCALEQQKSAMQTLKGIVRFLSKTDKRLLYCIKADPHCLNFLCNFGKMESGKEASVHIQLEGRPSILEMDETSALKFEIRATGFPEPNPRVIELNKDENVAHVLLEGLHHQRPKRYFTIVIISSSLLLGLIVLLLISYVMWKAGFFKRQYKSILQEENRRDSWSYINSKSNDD
α4β7 integrin, sequence (P26010 20-798): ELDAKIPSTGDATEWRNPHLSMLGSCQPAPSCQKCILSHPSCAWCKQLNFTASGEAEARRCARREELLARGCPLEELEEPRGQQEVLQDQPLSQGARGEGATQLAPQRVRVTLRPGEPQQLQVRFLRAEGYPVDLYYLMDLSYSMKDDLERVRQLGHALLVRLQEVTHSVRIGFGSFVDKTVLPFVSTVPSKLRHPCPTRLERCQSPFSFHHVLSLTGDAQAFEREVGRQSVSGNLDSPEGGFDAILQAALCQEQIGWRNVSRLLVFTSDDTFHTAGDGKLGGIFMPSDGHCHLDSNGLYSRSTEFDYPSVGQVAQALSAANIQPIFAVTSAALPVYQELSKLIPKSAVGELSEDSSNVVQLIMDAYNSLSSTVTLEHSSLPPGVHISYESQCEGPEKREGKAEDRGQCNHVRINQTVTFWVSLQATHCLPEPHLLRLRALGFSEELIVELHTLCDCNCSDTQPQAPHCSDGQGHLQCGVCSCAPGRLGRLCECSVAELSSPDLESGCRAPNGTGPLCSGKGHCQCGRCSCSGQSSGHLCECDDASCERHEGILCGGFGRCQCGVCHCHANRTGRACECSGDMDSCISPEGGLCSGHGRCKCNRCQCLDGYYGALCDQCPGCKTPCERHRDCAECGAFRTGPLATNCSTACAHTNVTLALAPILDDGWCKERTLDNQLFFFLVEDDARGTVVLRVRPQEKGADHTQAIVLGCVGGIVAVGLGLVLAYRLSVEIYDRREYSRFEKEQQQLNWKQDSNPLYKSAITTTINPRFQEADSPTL
In short: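 RPMI-8866 cells with CRISPR/Cas9 knockout of ITGB1 (2×10^6/mL) were added to MAdCAM-coated wells with compound (1% DMSO) in HEPES/NaCl buffer with 1 mM MnCl2, 0.1 mM CaCl2 and 1% BSA, then incubated 1 h at 37 °C. After four washes, adherent cells were quantified by CellTiter-Glo luminescence. Percent inhibition versus DMSO and control compound was fitted to 4-parameter curves.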

[1] = RPMI-8866 cells with stable LOF mutation of the ITGB7 gene, read-out: Mean IC50 α4β1 KO^b
[2] = RPMI-8866 cells with stable LOF mutation of the ITGB1 gene, read-out: Mean IC50 α4β7 KO^a
[3] = Protocol 5, RPMI-8866 cells with LOF mutation of ITGB7, VCAM, read-out: Mean IC50 α4β1 KO
[4] = Protocol 4, RPMI-8866 cells with LOF mutation of ITGB1, MAdCAM, read-out: Mean IC50 α4β7 KO

α4β1 integrin, sequence (P13612 34-1032): as the sequence (P13612 34-1032) above
α4β1 integrin, sequence (P05556 21-798): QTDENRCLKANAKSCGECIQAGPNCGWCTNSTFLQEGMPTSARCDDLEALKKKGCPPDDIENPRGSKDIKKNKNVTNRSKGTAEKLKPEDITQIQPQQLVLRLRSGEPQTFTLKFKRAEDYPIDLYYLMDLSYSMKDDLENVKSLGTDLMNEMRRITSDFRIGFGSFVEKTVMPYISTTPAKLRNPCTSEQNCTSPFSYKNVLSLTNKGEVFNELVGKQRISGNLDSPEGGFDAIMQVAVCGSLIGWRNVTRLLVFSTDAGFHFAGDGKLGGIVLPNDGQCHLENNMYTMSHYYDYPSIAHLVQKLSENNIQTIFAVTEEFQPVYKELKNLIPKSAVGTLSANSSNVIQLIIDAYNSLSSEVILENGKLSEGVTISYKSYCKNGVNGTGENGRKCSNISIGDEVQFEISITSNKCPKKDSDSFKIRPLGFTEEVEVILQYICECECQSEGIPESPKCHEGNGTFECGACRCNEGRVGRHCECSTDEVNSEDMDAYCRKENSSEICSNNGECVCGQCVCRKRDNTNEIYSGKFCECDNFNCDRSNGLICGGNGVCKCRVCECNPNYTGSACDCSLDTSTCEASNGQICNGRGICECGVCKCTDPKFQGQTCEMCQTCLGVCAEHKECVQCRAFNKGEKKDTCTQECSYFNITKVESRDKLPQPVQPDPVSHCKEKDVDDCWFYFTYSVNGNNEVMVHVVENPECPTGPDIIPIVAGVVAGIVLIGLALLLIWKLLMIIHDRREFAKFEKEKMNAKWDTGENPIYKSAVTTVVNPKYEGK

Row | SMILES | IC50 (α4β1 integrin; [1]) [nM] | IC50 (α4β7 integrin; [2]) [nM] | IC50 (α4β1 integrin; [3]) [nM] | IC50 (α4β7 integrin; [4]) [nM]
1 | COCCN1CCC(C(=O)N[C@@H](Cc2cccc3c(-c4c(C(F)(F)F)c5ccccc5n(C)c4=O)cccc23)C(=O)O)(C(F)(F)F)CC1 [Compound 502] | 100 to 1000 | < 10 | – | –
2 | O=C(O)[C@H](Cc1cccc2c(-c3cc4ccccc4cn3)cccc12)NC(=O)C1(C(F)(F)F)CCN(C2COC2)CC1 [Compound 525] | > 1000 | 10 to 100 | – | –
3 | CC[C@@H](N1CCC(C(=O)N[C@@H](Cc2cccc3c(-c4c(C(F)(F)F)c5ccccc5n(C)c4=O)cccc23)C(=O)O)(C(F)(F)F)CC1)C(F)(F)F [Compound 484] | > 1000 | 100 to 1000 | – | –
4 | O=C(O)[C@H](Cc1cccc2c(-c3ncc(CN4CCCCC4)cc3Cl)cccc12)NC(=O)C1(C(F)(F)F)CCN(CC(F)(F)F)CC1 [Compound 761] | – | – | > 1000 | 10 to 100
5 | O=C(O)[C@H](Cc1cccc2c(-c3ncc(CN4CC5CC(C5)C4)c4ccccc34)cccc12)NC(=O)C1(C(F)(F)F)CCN(CC(F)(F)F)CC1 [Compound 885] | – | – | > 1000 | < 10
6 | O=C(O)[C@H](Cc1cccc2c(-c3ncc(CN4C5CCCC4CC5)c4ccccc34)cccc12)NC(=O)C1(C(F)(F)F)CCN(CC(F)(F)F)CC1 [Compound 884] | – | – | > 1000 | < 10
7 | COc1cccc(CCN2CCC(C)(C)CC2)c1-c1cccc2c(C[C@H](NC(=O)c3c(C)cccc3F)C(=O)O)cccc12 [Compound 1033] | – | – | 100 to 1000 | < 10
8 | O=C(O)[C@H](Cc1cccc2c(-c3ncc(CN4CCN(C5CC5)CC4)cc3C3CC3)cccc12)NC(=O)C1(C(F)(F)F)CCN(CC(F)(F)F)CC1 [Compound 948] | – | – | 100 to 1000 | < 10
9 | COc1cccc(CCN2CCC[C@H](F)C2)c1-c1cccc2c(C[C@H](NC(=O)C3(C(F)(F)F)CCN(CC(F)F)CC3)C(=O)O)cccc12 [Compound 969] | – | – | > 1000 | < 10
10 | COc1cnc(CN2CCC(C)C(F)(F)CC2)cc1-c1cccc2c(C[C@H](NC(=O)C3(C(F)(F)F)CCN(CC(F)(F)F)CC3)C(=O)O)cccc12 (stereo partly shown) [Compound 843] | – | – | > 1000 | < 10
11 | COc1cccc(OC)c1-c1cccc2c(C[C@H](NC(=O)c3c(C)cccc3F)C(=O)O)cccc12 [Compound 526] | > 1000 | 10 to 100 | – | –
12 | CC1(C(=O)N[C@@H](Cc2cccc3c(-c4ncc(CN5CCCCC5)c5ccccc45)cccc23)C(=O)O)CC2CCC(C1)N2C1COC1 (stereo partly shown) [Compound 685] | > 1000 | 10 to 100 | – | –
13 | O=C(O)[C@H](Cc1cccc2c(-c3ccc(CN4CCCCC4)cn3)cccc12)NC(=O)C1(C(F)(F)F)CCN(CC(F)(F)F)CC1 [Compound 903] | – | – | > 1000 | 10 to 100
14 | O=C(O)[C@H](Cc1cccc2c(-c3nccc4ccc(CCCN5CCCCC5)cc34)cccc12)NC(=O)C1(C(F)(F)F)CCNCC1 [Compound 549] | > 1000 | < 10 | – | –
15 | COc1cc(CN2CCC(F)(F)CC2)cc(C(F)(F)F)c1-c1cccc2c(C[C@H](NC(=O)C3(C(F)(F)F)CCN(CC(F)(F)F)CC3)C(=O)O)cccc12 [Compound 847] | – | – | > 1000 | 10 to 100
16 | CN(C)Cc1ccc2c(c1)c(C(F)(F)F)c(-c1cccc3c(C[C@H](NC(=O)c4c(F)cccc4CN4CCC(F)(F)CC4)C(=O)O)cccc13)c(=O)n2C [Compound 701] | – | – | > 1000 | 10 to 100
17 | COc1ccc(CN(C)CC(F)F)c(OC)c1-c1cccc2c(C[C@H](NC(=O)c3c(C)cccc3F)C(=O)O)cccc12 [Compound 637] | 100 to 1000 | < 10 | – | –
18 | O=C(O)[C@H](Cc1cccc2c(-c3nccc4c(CN5CCCCC5)cccc34)cccc12)NC(=O)C1(C(F)(F)F)CCN([C@@H]2COCC2(F)F)CC1 [Compound 642] | > 1000 | < 10 | – | –
19 | COc1ccc(CN2CCC(c3ccncc3)CC2)c(OC)c1-c1cccc2c(C[C@H](NC(=O)C3(C(F)(F)F)CCN(CC(F)(F)F)CC3)C(=O)O)cccc12 [Compound 808] | – | – | 100 to 1000 | < 10

Other lines, results leading:

Row | IC50 (α4β1 integrin; [1]) [nM] | IC50 (α4β7 integrin; [2]) [nM] | IC50 (α4β1 integrin; [3]) [nM] | IC50 (α4β7 integrin; [4]) [nM] | SMILES
20 | 100 to 1000 | < 10 | – | – | COc1ccc(CN2CCC(F)CC2)c(OC)c1-c1cccc2c(C[C@H](NC(=O)c3c(C)cccc3F)C(=O)O)cccc12 [Compound 624]
21 | – | – | 100 to 1000 | < 10 | CN(C)Cc1cnc(-c2cccc3c(C[C@H](NC(=O)C4(C(F)(F)F)CCN(CC(F)(F)F)CC4)C(=O)O)cccc23)c2ccccc12 [Compound 921]
22 | > 1000 | 10 to 100 | – | – | Cn1c(=O)c(-c2cccc3c(C[C@H](NC(=O)C4(C(F)(F)F)CCN(C5COCC5C(F)(F)F)CC4)C(=O)O)cccc23)c(C(F)(F)F)c2ccccc21 (stereo partly shown) [Compound 513]
23 | > 1000 | > 1000 | – | – | CC[C@H](N1CCC(C(=O)N[C@@H](Cc2cccc3c(-c4c(C(F)(F)F)c5ccccc5n(C)c4=O)cccc23)C(=O)O)(C(F)(F)F)CC1)C(F)(F)F [Compound 518]
24 | 100 to 1000 | < 10 | – | – | COc1ccc(CN2CCCC(C)(C)C2)c(OC)c1-c1cccc2c(C[C@H](NC(=O)c3c(C)cccc3F)C(=O)O)cccc12 [Compound 565]
25 | – | – | > 1000 | 10 to 100 | O=C(O)[C@H](Cc1cccc2c(-c3ncc(C(=O)N4CCN(C5CC5)CC4)c4ccccc34)cccc12)NC(=O)C1(C(F)(F)F)CCN(CC(F)(F)F)CC1 [Compound 762]
26 | – | – | 100 to 1000 | < 10 | COc1cc(CN2CCC(F)CC2)cc(OC)c1-c1cccc2c(C[C@H](NC(=O)C3(C(F)(F)F)CCN(CC(F)(F)F)CC3)C(=O)O)cccc12 [Compound 851]
27 | – | – | > 1000 | 10 to 100 | C[C@@H]1CN(Cc2cnc(-c3cccc4c(C[C@H](NC(=O)C5(C(F)(F)F)CCN(CC(F)(F)F)CC5)C(=O)O)cccc34)c3ccccc23)C[C@H](C)O1 [Compound 863]
28 | – | – | > 1000 | < 10 | COc1cccc(CCN2CCC[C@H](F)C2)c1-c1cccc2c(C[C@H](NC(=O)c3c(C)cccc3F)C(=O)O)cccc12 [Compound 1037]
29 | 100 to 1000 | < 10 | – | – | CN(C)Cc1cccc2c(-c3cccc4c(C[C@H](NC(=O)C5(C(F)(F)F)CCN([C@H]6CCOC6)CC5)C(=O)O)cccc34)nccc12 [Compound 593]
30 | > 1000 | < 10 | – | – | O=C(O)[C@H](Cc1cccc2c(-c3nccc4c(CN5CC(F)C5)cccc34)cccc12)NC(=O)C1(C(F)(F)F)CCN(CC(F)(F)F)CC1 [Compound 556]
31 | – | – | 100 to 1000 | < 10 | COc1cncc(OC)c1-c1cccc2c(C[C@H](NC(=O)C3(C(F)(F)F)CCN(CC(F)(F)F)CC3)C(=O)O)cccc12 [Compound 734]
32 | 100 to 1000 | < 10 | – | – | COc1ccc(CN(C)C)c(OC)c1-c1cccc2c(C[C@H](NC(=O)c3c(C)cc(NCC(F)(F)F)cc3F)C(=O)O)cccc12 [Compound 607]
33 | – | – | > 1000 | 10 to 100 | O=C(O)[C@H](Cc1cccc2c(-c3ccc(CN4CCCC(F)C4)c4ccncc34)cccc12)NC(=O)C1(C(F)(F)F)CCN(CC(F)(F)F)CC1 (stereo partly shown) [Compound 989]
34 | – | – | > 1000 | 10 to 100 | COc1cc2ncccc2c(C)c1-c1cccc2c(C[C@H](NC(=O)C3(C(F)(F)F)CCN(CC(F)(F)F)CC3)C(=O)O)cccc12 [Compound 738]
35 | – | – | > 1000 | 10 to 100 | O=C(O)[C@H](Cc1cccc2c(-c3ncc(CN4CCOC(C(F)(F)F)C4)c4ccccc34)cccc12)NC(=O)C1(C(F)(F)F)CCN(CC(F)(F)F)CC1 (stereo partly shown) [Compound 856]
36 | – | – | > 1000 | 10 to 100 | COc1cccc(CCN2CCC(F)CC2)c1-c1cccc2c(C[C@H](NC(=O)c3c(C)cccc3F)C(=O)O)cccc12 [Compound 1035]
37 | > 1000 | 10 to 100 | – | – | Cn1c(=O)c(-c2cccc3c(C[C@H](NC(=O)C4(C(F)(F)F)CCN(C5CCOCC5C(F)(F)F)CC4)C(=O)O)cccc23)c(C(F)(F)F)c2ccccc21 (stereo partly shown) [Compound 511]
38 | 100 to 1000 | < 10 | – | – | CCN(CC)Cc1ccc(OC)c(-c2cccc3c(C[C@H](NC(=O)c4c(C)cccc4F)C(=O)O)cccc23)c1OC [Compound 622]
39 | > 1000 | < 10 | – | – | O=C(O)[C@H](Cc1cccc2c(-c3ccc(CN4CCCCC4)c4ccncc34)cccc12)NC(=O)C1(C(F)(F)F)CCN(CC(F)(F)F)CC1 [Compound 555]
40 | – | – | > 1000 | < 10 | O=C(O)[C@H](Cc1cccc2c(-c3ncc(CN4CCC[C@H](F)C4)c4ccccc34)cccc12)NC(=O)C1(C(F)(F)F)CCN(CC(F)F)CC1 [Compound 859]
41 | > 1000 | < 10 | – | – | CC1(C(=O)N[C@@H](Cc2cccc3c(-c4ncc(CN5CCCCC5)c5ccccc45)cccc23)C(=O)O)CCN(CC(F)(F)F)CC1 [Compound 576]
42 | – | – | > 1000 | < 10 | CN(C)Cc1ccc(-c2cccc3c(C[C@H](NC(=O)C4(C(F)(F)F)CCN(CC(F)(F)F)CC4)C(=O)O)cccc23)c2cnccc12 [Compound 695]
43 | – | – | > 1000 | 10 to 100 | Cc1cccc(F)c1C(=O)N[C@@H](Cc1cccc2c(-c3c(C(F)(F)F)c4cc(CCN5CCC(F)(F)CC5)ccc4n(C)c3=O)cccc12)C(=O)O [Compound 714]
44 | > 1000 | < 10 | – | – | COc1cnc(CN(C)C)cc1-c1cccc2c(C[C@H](NC(=O)c3c(C)cccc3F)C(=O)O)cccc12 [Compound 601]

Source: patent publication US20250313535A1, “ALPHA 4 BETA 7 INTEGRIN MODULATORS AND USES THEREOF” (DICE MOLECULES SV, INC., priority 2022, published 2025)
